From patent publication US20110173718A1, “HERBICIDE TOLERANT PLANTS” (SYNGENTA CROP PROTECTION, INC., priority 2008, published 2011)

Tested on: weeds
Assay: Glasshouse weed control by HST/HPPD (mesotrione) mixtures, post-emergence
Type: in vivo
Conditions: post-emergence; for % damage, 1 g ai ha^−1 mesotrione / % damage, no-mesotrione: 14 DAT; for colby: difference to Colby expectation
Procedure: Weed seeds are planted out in trays containing suitable soil (for example 50% peat, 50% John Innes soil no 3) and grown in the glass house conditions under 24-27° C. day; 18-21° C. night and approximately a 14 h (or longer in UK summer) photoperiod. Humidity is ˜65% and light levels up to 2000 μmol/m^2 at bench level. Trays are sprayed with test chemicals dissolved in water with 0.2-0.25% X-77 surfactant and sprayed from a boom on a suitable track sprayer moving at about 2 mph in a suitable track sprayer (for example a DeVries spray chamber with the nozzle about 2 inches from the plant tops). Spray volume is suitably 500-1000 l/ha. Sprays are carried out both pre-emergence and over small plants at about 7-12 d post-emergence
Plants are assessed 14 DAT and herbicidal damage is scored on a scale from 0 to 100%. The HST inhibitor compound 2.30 (designated compound A in table 16 and 17), haloxydine (compound 1.1) and compound 2.13 (designated compound AE in tables 16 and 17) are sprayed at rates between 0 and 500 g/ha.

[1] = ALOMY, 16 g/ha + 1 g ai/ha mesotrione
[2] = ALOMY, 31 g/ha + 1 g ai/ha mesotrione
[3] = ALOMY, 63 g/ha + 1 g ai/ha mesotrione
[4] = ALOMY, 125 g/ha + 1 g ai/ha mesotrione
[5] = ALOMY, 250 g/ha + 1 g ai/ha mesotrione
[6] = ALOMY, 500 g/ha + 1 g ai/ha mesotrione
[7] = ECHCG, 16 g/ha + 1 g ai/ha mesotrione
[8] = ECHCG, 31 g/ha + 1 g ai/ha mesotrione
[9] = ECHCG, 63 g/ha + 1 g ai/ha mesotrione
[10] = ECHCG, 125 g/ha + 1 g ai/ha mesotrione
[11] = ECHCG, 250 g/ha + 1 g ai/ha mesotrione
[12] = ECHCG, 500 g/ha + 1 g ai/ha mesotrione
[13] = SETFA, 16 g/ha + 1 g ai/ha mesotrione
[14] = SETFA, 31 g/ha + 1 g ai/ha mesotrione
[15] = SETFA, 63 g/ha + 1 g ai/ha mesotrione
[16] = SETFA, 125 g/ha + 1 g ai/ha mesotrione
[17] = SETFA, 250 g/ha + 1 g ai/ha mesotrione
[18] = SETFA, 500 g/ha + 1 g ai/ha mesotrione

SMILES: O=c1c(-c2c(F)ccc(F)c2Cl)c(O)c2cccnc2n1CC(F)F [Compound 2.13]
- % damage, 1 g ai ha^−1 mesotrione [1]: 0%
- colby [1]: 0
- % damage, no-mesotrione (ALOMY, 16 g/ha): 0%
- % damage, 1 g ai ha^−1 mesotrione [2]: 2%
- colby [2]: 2
- % damage, no-mesotrione (ALOMY, 31 g/ha): 0%
- % damage, 1 g ai ha^−1 mesotrione [3]: 3%
- colby [3]: 3
- % damage, no-mesotrione (ALOMY, 63 g/ha): 0%
- % damage, 1 g ai ha^−1 mesotrione [4]: 0%
- colby [4]: 0
- % damage, no-mesotrione (ALOMY, 125 g/ha): 0%
- % damage, 1 g ai ha^−1 mesotrione [5]: 3%
- colby [5]: 2
- % damage, no-mesotrione (ALOMY, 250 g/ha): 2%
- % damage, 1 g ai ha^−1 mesotrione [6]: 5%
- colby [6]: −2
- % damage, no-mesotrione (ALOMY, 500 g/ha): 7%
- % damage, 1 g ai ha^−1 mesotrione [7]: 5%
- colby [7]: −3
- % damage, no-mesotrione (ECHCG, 16 g/ha): 0%
- % damage, 1 g ai ha^−1 mesotrione [8]: 5%
- colby [8]: −3
- % damage, no-mesotrione (ECHCG, 31 g/ha): 0%
- % damage, 1 g ai ha^−1 mesotrione [9]: 8%
- colby [9]: 0
- % damage, no-mesotrione (ECHCG, 63 g/ha): 0%
- % damage, 1 g ai ha^−1 mesotrione [10]: 15%
- colby [10]: 7
- % damage, no-mesotrione (ECHCG, 125 g/ha): 0%
- % damage, 1 g ai ha^−1 mesotrione [11]: 22%
- colby [11]: 13
- % damage, no-mesotrione (ECHCG, 250 g/ha): 0%
- % damage, 1 g ai ha^−1 mesotrione [12]: 20%
- colby [12]: 12
- % damage, no-mesotrione (ECHCG, 500 g/ha): 0%
- % damage, 1 g ai ha^−1 mesotrione [13]: 0%
- colby [13]: 0
- % damage, no-mesotrione (SETFA, 16 g/ha): 0%
- % damage, 1 g ai ha^−1 mesotrione [14]: 0%
- colby [14]: 0
- % damage, no-mesotrione (SETFA, 31 g/ha): 0%
- % damage, 1 g ai ha^−1 mesotrione [15]: 0%
- colby [15]: 0
- % damage, no-mesotrione (SETFA, 63 g/ha): 0%
- % damage, 1 g ai ha^−1 mesotrione [16]: 0%
- colby [16]: 0
- % damage, no-mesotrione (SETFA, 125 g/ha): 0%
- % damage, 1 g ai ha^−1 mesotrione [17]: 0%
- colby [17]: 0
- % damage, no-mesotrione (SETFA, 250 g/ha): 0%
- % damage, 1 g ai ha^−1 mesotrione [18]: 0%
- colby [18]: 0
- % damage, no-mesotrione (SETFA, 500 g/ha): 0%

SMILES: O=c1c(Cl)c(F)[nH]c(F)c1Cl [Haloxidine]
- % damage, 1 g ai ha^−1 mesotrione [1]: 23%
- colby [1]: 10
- % damage, no-mesotrione (ALOMY, 16 g/ha): 13%
- % damage, 1 g ai ha^−1 mesotrione [2]: 33%
- colby [2]: 7
- % damage, no-mesotrione (ALOMY, 31 g/ha): 27%
- % damage, 1 g ai ha^−1 mesotrione [3]: 68%
- colby [3]: 15
- % damage, no-mesotrione (ALOMY, 63 g/ha): 53%
- % damage, 1 g ai ha^−1 mesotrione [4]: 83%
- colby [4]: 5
- % damage, no-mesotrione (ALOMY, 125 g/ha): 78%
- % damage, 1 g ai ha^−1 mesotrione [5]: 92%
- colby [5]: 2
- % damage, no-mesotrione (ALOMY, 250 g/ha): 90%
- % damage, 1 g ai ha^−1 mesotrione [6]: 95%
- colby [6]: 0
- % damage, no-mesotrione (ALOMY, 500 g/ha): 95%
- % damage, 1 g ai ha^−1 mesotrione [7]: 57%
- colby [7]: 18
- % damage, no-mesotrione (ECHCG, 16 g/ha): 33%
- % damage, 1 g ai ha^−1 mesotrione [8]: 67%
- colby [8]: 11
- % damage, no-mesotrione (ECHCG, 31 g/ha): 52%
- % damage, 1 g ai ha^−1 mesotrione [9]: 75%
- colby [9]: 15
- % damage, no-mesotrione (ECHCG, 63 g/ha): 57%
- % damage, 1 g ai ha^−1 mesotrione [10]: 78%
- colby [10]: 6
- % damage, no-mesotrione (ECHCG, 125 g/ha): 70%
- % damage, 1 g ai ha^−1 mesotrione [11]: 97%
- colby [11]: 12
- % damage, no-mesotrione (ECHCG, 250 g/ha): 83%
- % damage, 1 g ai ha^−1 mesotrione [12]: 100%
- colby [12]: 2
- % damage, no-mesotrione (ECHCG, 500 g/ha): 98%
- % damage, 1 g ai ha^−1 mesotrione [13]: 27%
- colby [13]: −15
- % damage, no-mesotrione (SETFA, 16 g/ha): 42%
- % damage, 1 g ai ha^−1 mesotrione [14]: 82%
- colby [14]: 13
- % damage, no-mesotrione (SETFA, 31 g/ha): 68%
- % damage, 1 g ai ha^−1 mesotrione [15]: 92%
- colby [15]: 12
- % damage, no-mesotrione (SETFA, 63 g/ha): 80%
- % damage, 1 g ai ha^−1 mesotrione [16]: 97%
- colby [16]: 3
- % damage, no-mesotrione (SETFA, 125 g/ha): 93%
- % damage, 1 g ai ha^−1 mesotrione [17]: 100%
- colby [17]: 0
- % damage, no-mesotrione (SETFA, 250 g/ha): 100%
- % damage, 1 g ai ha^−1 mesotrione [18]: 100%
- colby [18]: 0
- % damage, no-mesotrione (SETFA, 500 g/ha): 100%
